Columns and labels:
SETVI (Foxtail, Green) = assay: Postemergence herbicidal evaluation; format: in vivo, Setaria viridis; details: postemergence
Method in brief: (§1)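 Compound is applied as a foliar spray to seedlings about two weeks old, formulated in equal parts acetone and water with 0.5% TWEEN 20 and delivered at 40 psi to give about 0.0156–0.500 kg per hectare. Injury is rated visually 0–9 after four to five weeks.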

ABUTH (Velvetleaf) [1] = assay: Preemergence herbicidal evaluation; format: in vivo, Abutilon theophrasti; details: rated 4-5 weeks after treatment
Method in brief: (§2)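 Scores use a 0–9 visual scale covering stand, vigor, malformation, size and chlorosis relative to controls, rated four to five weeks after treatment. Before emergence, soil-planted seeds were sprayed with compound in aqueous acetone at roughly 0.0156–0.500 kg/ha and held in the greenhouse.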

ZEAMX (Corn, Field) [2] = assay: Preemergence herbicidal evaluation; format: in vivo, Zea mays; details: rated 4-5 weeks after treatment
Method in brief: as §2

ECHCG (Barnyardgrass) [3] = assay: Preemergence herbicidal evaluation; format: in vivo, Echinochloa crus-galli; details: rated 4-5 weeks after treatment
Method in brief: as §2

ABUTH (Velvetleaf) [4] = assay: Postemergence herbicidal evaluation; format: in vivo, Abutilon theophrasti; details: postemergence
Method in brief: as §1

[5] = system: GLXMAW (Soybean, Williams); assay: Preemergence herbicidal evaluation; format: in vivo, Glycine max, (L.) Merr. cv Williams; details: rated 4-5 weeks after treatment
Method in brief: as §2

ECHCG (Barnyardgrass) [6] = assay: Postemergence herbicidal evaluation; format: in vivo, Echinochloa crus-galli; details: postemergence
Method in brief: as §1

[7] = system: CHEAL (Lambsquarters, Common); assay: Postemergence herbicidal evaluation; format: in vivo, Chenopodium album; details: postemergence
Method in brief: as §1

[8] = system: IPOHE (Morningglory, Ivyleaf); assay: Postemergence herbicidal evaluation; format: in vivo, Ipomoea hederacea; details: postemergence
Method in brief: as §1

[9] = system: IPOHE (Morningglory, Ivyleaf); assay: Preemergence herbicidal evaluation; format: in vivo, Ipomoea hederacea; details: rated 4-5 weeks after treatment
Method in brief: as §2

ZEAMX (Corn, Field) [10] = assay: Postemergence herbicidal evaluation; format: in vivo, Zea mays; details: postemergence
Method in brief: as §1

CASOB (Sicklepod) = assay: Preemergence herbicidal evaluation; format: in vivo, Cassia obtusifolia; details: rated 4-5 weeks after treatment
Method in brief: as §2

CYPIR (Rice Flatsedge) = assay: Postemergence weed control under flooded paddy conditions; format: in vivo, Cyperus iria; details: postemergence weeds, 3-4 weeks after treatment
Method in brief: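 Flood-water application, about 0.0313–0.500 kg/ha a.i. in aqueous/acetone 50/50 v/v; water depth 1.5–3 cm throughout. Weeds 3–5 cm, rice 1.5–2.5 leaf. Greenhouse; 0–9 visual rating vs control at 3–4 wk.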

ORYSAT (Rice, Tebonnet) = assay: Postemergence herbicidal evaluation; format: in vivo, Oryza sativa, (L.) Tebonnet; details: postemergence
Method in brief: as §1

[11] = system: TRZAWR (Wheat, Winter, cv Riband); assay: Preemergence herbicidal evaluation; format: in vivo, Triticum aestivum; details: rated 4-5 weeks after treatment
Method in brief: as §2

[12] = system: CHEAL (Lambsquarters, Common); assay: Preemergence herbicidal evaluation; format: in vivo, Chenopodium album; details: rated 4-5 weeks after treatment
Method in brief: as §2

SMILES: CCOC(=O)CN1C(=O)CN(C)C1=Nc1cc(-n2c(=O)cc(C(F)(F)F)n(C)c2=O)c(F)cc1Cl [Compound 25, Ethyl 2-{{2-chloro-5-[3,6-dihydro-3-methyl-2,6-dioxo-4-(trifluoromethyl)-1(2H)-pyrimidinyl]-4-fluorophenyl}imino}-3-methyl-5-oxo-1-imidazolidineacetate]
- SETVI herbicidal rating (SETVI (Foxtail, Green); rate 0.0156 kg/ha): 0.0
- SETVI herbicidal rating (SETVI (Foxtail, Green); rate 0.0313 kg/ha): 0.0
- SETVI herbicidal rating (SETVI (Foxtail, Green); rate 0.0625 kg/ha): 0.0
- Preemergence herbicidal rating ABUTH (ABUTH (Velvetleaf) [1]; rate 0.0156 kg/ha): 9.0
- Preemergence herbicidal rating ABUTH (ABUTH (Velvetleaf) [1]; rate 0.0313 kg/ha): 9.0
- ABUTH preemergence herbicidal rating (ABUTH (Velvetleaf) [1]; rate 0.0625 kg/ha): 9.0
- ABUTH preemergence herbicidal rating (ABUTH (Velvetleaf) [1]; rate 0.1250 kg/ha): 9.0
- ABUTH preemergence herbicidal rating (ABUTH (Velvetleaf) [1]; rate 0.2500 kg/ha): 9.0
- Preemergence herbicidal rating ZEAMX (ZEAMX (Corn, Field) [2]; rate 0.0156 kg/ha): 0.0
- Preemergence herbicidal rating ZEAMX (ZEAMX (Corn, Field) [2]; rate 0.0313 kg/ha): 0.0
- ZEAMX preemergence herbicidal rating (ZEAMX (Corn, Field) [2]; rate 0.0625 kg/ha): 6.0
- ZEAMX preemergence herbicidal rating (ZEAMX (Corn, Field) [2]; rate 0.1250 kg/ha): 8.0
- ZEAMX preemergence herbicidal rating (ZEAMX (Corn, Field) [2]; rate 0.2500 kg/ha): 9.0
- Preemergence herbicidal rating ECHCG (ECHCG (Barnyardgrass) [3]; rate 0.0156 kg/ha): 0.0
- Preemergence herbicidal rating ECHCG (ECHCG (Barnyardgrass) [3]; rate 0.0313 kg/ha): 0.0
- ECHCG preemergence herbicidal rating (ECHCG (Barnyardgrass) [3]; rate 0.0625 kg/ha): 0.0
- ECHCG preemergence herbicidal rating (ECHCG (Barnyardgrass) [3]; rate 0.1250 kg/ha): 0.0
- ECHCG preemergence herbicidal rating (ECHCG (Barnyardgrass) [3]; rate 0.2500 kg/ha): 7.0
- ABUTH herbicidal rating (ABUTH (Velvetleaf) [4]; rate 0.0156 kg/ha): 9.0
- ABUTH herbicidal rating (ABUTH (Velvetleaf) [4]; rate 0.0313 kg/ha): 9.0
- ABUTH herbicidal rating (ABUTH (Velvetleaf) [4]; rate 0.0625 kg/ha): 9.0
- Preemergence herbicidal rating GLXMAW ([5]; rate 0.0156 kg/ha): 0.0
- Preemergence herbicidal rating GLXMAW ([5]; rate 0.0313 kg/ha): 0.0
- GLXMAW preemergence herbicidal rating ([5]; rate 0.0625 kg/ha): 2.0
- GLXMAW preemergence herbicidal rating ([5]; rate 0.1250 kg/ha): 3.0
- GLXMAW preemergence herbicidal rating ([5]; rate 0.2500 kg/ha): 6.0
- ECHCG herbicidal rating (ECHCG (Barnyardgrass) [6]; rate 0.0156 kg/ha): 0.0
- ECHCG herbicidal rating (ECHCG (Barnyardgrass) [6]; rate 0.0313 kg/ha): 0.0
- ECHCG herbicidal rating (ECHCG (Barnyardgrass) [6]; rate 0.0625 kg/ha): 0.0
- CHEAL herbicidal rating ([7]; rate 0.0156 kg/ha): 2.0
- CHEAL herbicidal rating ([7]; rate 0.0313 kg/ha): 5.0
- CHEAL herbicidal rating ([7]; rate 0.0625 kg/ha): 9.0
- IPOHE herbicidal rating ([8]; rate 0.0156 kg/ha): 9.0
- IPOHE herbicidal rating ([8]; rate 0.0313 kg/ha): 9.0
- IPOHE herbicidal rating ([8]; rate 0.0625 kg/ha): 9.0
- Preemergence herbicidal rating IPOHE ([9]; rate 0.0156 kg/ha): 0.0
- Preemergence herbicidal rating IPOHE ([9]; rate 0.0313 kg/ha): 0.0
- IPOHE preemergence herbicidal rating ([9]; rate 0.0625 kg/ha): 0.0
- IPOHE preemergence herbicidal rating ([9]; rate 0.1250 kg/ha): 2.0
- IPOHE preemergence herbicidal rating ([9]; rate 0.2500 kg/ha): 5.0
- ZEAMX herbicidal rating (ZEAMX (Corn, Field) [10]; rate 0.0156 kg/ha): 3.5
- ZEAMX herbicidal rating (ZEAMX (Corn, Field) [10]; rate 0.0313 kg/ha): 5.5
- ZEAMX herbicidal rating (ZEAMX (Corn, Field) [10]; rate 0.0625 kg/ha): 7.0
- Preemergence herbicidal rating CASOB (CASOB (Sicklepod); rate 0.0156 kg/ha): 0.0
- Preemergence herbicidal rating CASOB (CASOB (Sicklepod); rate 0.0313 kg/ha): 0.0
- CASOB preemergence herbicidal rating (CASOB (Sicklepod); rate 0.0625 kg/ha): 0.0
- CASOB preemergence herbicidal rating (CASOB (Sicklepod); rate 0.1250 kg/ha): 2.0
- CASOB preemergence herbicidal rating (CASOB (Sicklepod); rate 0.2500 kg/ha): 3.0
- Herbicidal rating CYPIR (CYPIR (Rice Flatsedge); rate 0.0313 kg/ha): 0.0
- Herbicidal rating CYPIR (CYPIR (Rice Flatsedge); rate 0.0625 kg/ha): 0.0
- Herbicidal rating CYPIR (CYPIR (Rice Flatsedge); rate 0.1250 kg/ha): 0.0
- Herbicidal rating CYPIR (CYPIR (Rice Flatsedge); rate 0.2500 kg/ha): 0.0
- ORYSAT herbicidal rating (ORYSAT (Rice, Tebonnet); rate 0.0156 kg/ha): 0.5
- ORYSAT herbicidal rating (ORYSAT (Rice, Tebonnet); rate 0.0313 kg/ha): 2.0
- ORYSAT herbicidal rating (ORYSAT (Rice, Tebonnet); rate 0.0625 kg/ha): 2.0
- Preemergence herbicidal rating TRZAWR ([11]; rate 0.0156 kg/ha): 0.0
- Preemergence herbicidal rating TRZAWR ([11]; rate 0.0313 kg/ha): 1.0
- TRZAWR preemergence herbicidal rating ([11]; rate 0.0625 kg/ha): 2.0
- TRZAWR preemergence herbicidal rating ([11]; rate 0.1250 kg/ha): 3.0
- TRZAWR preemergence herbicidal rating ([11]; rate 0.2500 kg/ha): 6.0
- Preemergence herbicidal rating CHEAL ([12]; rate 0.0156 kg/ha): 7.0
- Preemergence herbicidal rating CHEAL ([12]; rate 0.0313 kg/ha): 9.0
- CHEAL preemergence herbicidal rating ([12]; rate 0.0625 kg/ha): 9.0
- CHEAL preemergence herbicidal rating ([12]; rate 0.1250 kg/ha): 9.0
- CHEAL preemergence herbicidal rating ([12]; rate 0.2500 kg/ha): 9.0

Reference: patent US20020137929A1, “1 - (3-heterocyclylphenyl) isothiourea, -isourea, -guanidine and -amidine herbicidal agents” (Intellectual Property Department, BASF Aktiengesellschaft, priority 1998, published 2002)
